Measurements published in article PMC6268642, “Facile Synthesis and Herbicidal Evaluation of 4H-3,1-Benzoxazin-4-ones and 3H-Quinazolin-4-ones with 2-Phenoxymethyl Substituents” (Molecules, 2012).
Like-named read-outs stand apart in the source and are kept apart here.

Columns and labels:
[1] = system: barnyard grass Echinochloa crusgalli; test: Petri dish culture, growth inhibition of root and stalk of barnyard grass; assay type: in vivo; conditions: 5 days; for inhibition at 1 µg/mL / inhibition at 10 µg/mL: Echinochloa crus-galli, 120 h
Method: (§1) The synthesized compounds were tested for the herbicidal activity on model plants including a monocotyledon (barnyard grass) and a dicotyledon (rape) by the reported Petri dish culture method. The percent inhibitory ratios against the growth of root and stalk of barnyard grass and rape at different dosage concentrations were calculated, and the compounds with appreciable inhibitory potencies are selected and shown in Table 1 and Table 2. Several features of the inhibitory activities can be derived. First, all the compounds have stronger inhibition against the growth of the dicotyledon rape than against the monocotyledon barnyard grass, showing appreciable selectivity.
(§2) The herbicidal activity was examined for the growth inhibition effect of the dicotyledon rape Brassica napus and the monocotyledon barnyard grass Echinochloa crusgalli, using the standard Petri dish test and the pre-emergence treatment procedure. […] Nine mL of the solution was added in a Petri dish of 9 cm diameter and two pieces of filter paper were placed on the dish bottom. Twenty seeds each of rape and barnyard grass were placed on the filter paper. The covered Petri dish was transferred into an artificial climate incubator (MGC-400H, Shantou Keyi Co., Ltd., China), where the conditions were controlled at temperature 23 ± 1 °C, humidity 60 ± 5%, light intensity 10 Klux, and photoperiod 12 h/day. The incubation was continued for 5 days, then the lengths of 10 roots and 10 stems for each type of plant were measured and the mean values were calculated. The percent inhibitory ratios were calculated relative to control plants exposing to distilled water instead of the compound solution.

rape Brassica napus = test: Petri dish culture, growth inhibition of root and stalk of rape; assay type: in vivo; conditions: 5 days; for inhibition at 1 µg/mL / inhibition at 10 µg/mL: Brassica napus, 120 h
Method: as §1, §2

[2] = 1 mg/L, root growth, read-out: Relative inhibition, root
[3] = 1 mg/L, stalk growth, read-out: Relative inhibition, stalk
[4] = 10 mg/L, root growth, read-out: Relative inhibition, root
[5] = 10 mg/L, stalk growth, read-out: Relative inhibition, stalk

7-Chloro-2-((2,4-dichlorophenoxy)methyl)-3-methyl-3H-quinazolin-4-one [4r]
Relative inhibition, root ([1]; 1 mg/L, root growth): 12.3% | Relative inhibition, stalk ([1]; 1 mg/L, stalk growth): 1.4% | Relative inhibition, root ([1]; 10 mg/L, root growth): 34.6% | Relative inhibition, stalk ([1]; 10 mg/L, stalk growth): 0.0% | Relative inhibition, root (rape Brassica napus; 1 mg/L, root growth): 32.3% | Relative inhibition, stalk (rape Brassica napus; 1 mg/L, stalk growth): −8.8% | Relative inhibition, root (rape Brassica napus; 10 mg/L, root growth): 44.5% | Relative inhibition, stalk (rape Brassica napus; 10 mg/L, stalk growth): −2.4%

O=c1oc(COc2ccc(F)cc2)nc2cc(Cl)ccc12 [3u, 7-Chloro-2-((4-fluorophenoxy)methyl)-4H-3,1-benzoxazin-4-one]
inhibition at 1 µg/mL [1, 2]: 61.8% | inhibition at 1 µg/mL [1, 3]: -7.3% | inhibition at 10 µg/mL [1, 4]: 96.7% | inhibition at 10 µg/mL [1, 5]: 39% | inhibition at 1 µg/mL (rape Brassica napus; [2]): 92.7% | inhibition at 1 µg/mL (rape Brassica napus; [3]): 65.2% | inhibition at 10 µg/mL (rape Brassica napus; [4]): 99% | inhibition at 10 µg/mL (rape Brassica napus; [5]): 92.2% | melting point: 123.6 to 124.9 °C

COc1cc2nc(COc3ccc(Cl)cc3Cl)n(C)c(=O)c2cc1OC [4s, 2-((2,4-Dichlorophenoxy)methyl)-6,7-dimethoxy-3-methyl-3H-quinazolin-4-one]
inhibition at 1 µg/mL [1, 2]: 30% | inhibition at 1 µg/mL [1, 3]: -20.3% | inhibition at 10 µg/mL [1, 4]: 52.2% | inhibition at 10 µg/mL [1, 5]: -54.5% | inhibition at 1 µg/mL (rape Brassica napus; [2]): 7.1% | inhibition at 1 µg/mL (rape Brassica napus; [3]): 8.1% | inhibition at 10 µg/mL (rape Brassica napus; [4]): 20.7% | inhibition at 10 µg/mL (rape Brassica napus; [5]): 20.3% | melting point: 243.9 to 245.2 °C

COc1cc2nc(COc3ccc(Cl)cc3)n(N)c(=O)c2cc1OC [4e, 3-Amino-2-((4-chlorophenoxy)methyl)-6,7-dimethoxy-3H-quinazolin-4-one]
inhibition at 1 µg/mL [1, 2]: 13.8% | inhibition at 1 µg/mL [1, 3]: 2.9% | inhibition at 10 µg/mL [1, 4]: 23.3% | inhibition at 10 µg/mL [1, 5]: 11.9% | inhibition at 1 µg/mL (rape Brassica napus; [2]): 21.9% | inhibition at 1 µg/mL (rape Brassica napus; [3]): 1.5% | inhibition at 10 µg/mL (rape Brassica napus; [4]): 30.8% | inhibition at 10 µg/mL (rape Brassica napus; [5]): 6.4% | melting point: 202.8 to 204.1 °C

Nn1c(COc2ccc(Cl)cc2)nc2cc(Cl)ccc2c1=O [4c, 3-Amino-7-chloro-2-((4-chlorophenoxy)methyl)-3H-quinazolin-4-one]
inhibition at 1 µg/mL [1, 2]: 10.4% | inhibition at 1 µg/mL [1, 3]: 1.4% | inhibition at 10 µg/mL [1, 4]: 42.1% | inhibition at 10 µg/mL [1, 5]: 17.9% | inhibition at 1 µg/mL (rape Brassica napus; [2]): 27.7% | inhibition at 1 µg/mL (rape Brassica napus; [3]): -9.3% | inhibition at 10 µg/mL (rape Brassica napus; [4]): 69.7% | inhibition at 10 µg/mL (rape Brassica napus; [5]): 41.6% | melting point: 129.5 to 131.6 °C

O=c1oc(COc2ccc(F)cc2)nc2ccc(Cl)cc12 [3t, 6-Chloro-2-((4-fluorophenoxy)methyl)-4H-3,1-benzoxazin-4-one]
inhibition at 1 µg/mL [1, 2]: 66.3% | inhibition at 1 µg/mL [1, 3]: 36.4% | inhibition at 10 µg/mL [1, 4]: 93.2% | inhibition at 10 µg/mL [1, 5]: 49.1% | inhibition at 1 µg/mL (rape Brassica napus; [2]): 85.5% | inhibition at 1 µg/mL (rape Brassica napus; [3]): 60% | inhibition at 10 µg/mL (rape Brassica napus; [4]): 99.3% | inhibition at 10 µg/mL (rape Brassica napus; [5]): 91.7% | melting point: 159.8 to 161.7 °C

Cc1ccc2nc(COc3ccc(Cl)cc3)n(C)c(=O)c2c1 [4n, 2-((4-Chlorophenoxy)methyl)-3,6-dimethyl-3H-quinazolin-4-one]
inhibition at 1 µg/mL [1, 2]: 26.7% | inhibition at 1 µg/mL [1, 3]: 14.9% | inhibition at 10 µg/mL [1, 4]: 43.5% | inhibition at 10 µg/mL [1, 5]: 14.9% | inhibition at 1 µg/mL (rape Brassica napus; [2]): 39.4% | inhibition at 1 µg/mL (rape Brassica napus; [3]): 7.8% | inhibition at 10 µg/mL (rape Brassica napus; [4]): 45% | inhibition at 10 µg/mL (rape Brassica napus; [5]): 16.6% | melting point: 196.4 to 197.6 °C

COc1cc2nc(COc3ccccc3)oc(=O)c2cc1OC [3f, 6,7-Dimethoxy-2-(phenoxymethyl)-4H-3,1-benzoxazin-4-one]
inhibition at 1 µg/mL [1, 2]: 35.5% | inhibition at 1 µg/mL [1, 3]: 32% | inhibition at 10 µg/mL [1, 4]: 63% | inhibition at 10 µg/mL [1, 5]: 46.7% | inhibition at 1 µg/mL (rape Brassica napus; [2]): 94.9% | inhibition at 1 µg/mL (rape Brassica napus; [3]): 32.9% | inhibition at 10 µg/mL (rape Brassica napus; [4]): 71.1% | inhibition at 10 µg/mL (rape Brassica napus; [5]): 63.3% | melting point: 132.1 to 134.3 °C

Cn1c(COc2ccc(Cl)cc2Cl)nc2ccccc2c1=O [4p, 2-((2,4-Dichlorophenoxy)methyl)-3-methy-3H-quinazolin-4-one]
inhibition at 1 µg/mL [1, 2]: 2.5% | inhibition at 1 µg/mL [1, 3]: -10.9% | inhibition at 10 µg/mL [1, 4]: 29.4% | inhibition at 10 µg/mL [1, 5]: -47.3% | inhibition at 1 µg/mL (rape Brassica napus; [2]): 4.5% | inhibition at 1 µg/mL (rape Brassica napus; [3]): 27.1% | inhibition at 10 µg/mL (rape Brassica napus; [4]): 21.2% | inhibition at 10 µg/mL (rape Brassica napus; [5]): 29.2% | melting point: 172.1 to 173.4 °C

Nn1c(COc2ccc(Cl)cc2)nc2ccc(Cl)cc2c1=O [4b, 3-Amino-6-chloro-2-((4-chlorophenoxy)methyl)-3H-quinazolin-4-one]
inhibition at 1 µg/mL [1, 2]: 33.2% | inhibition at 1 µg/mL [1, 3]: 20.9% | inhibition at 10 µg/mL [1, 4]: 9.9% | inhibition at 10 µg/mL [1, 5]: 11.9% | inhibition at 1 µg/mL (rape Brassica napus; [2]): 27.7% | inhibition at 1 µg/mL (rape Brassica napus; [3]): 14.7% | inhibition at 10 µg/mL (rape Brassica napus; [4]): 46.8% | inhibition at 10 µg/mL (rape Brassica napus; [5]): 13.2% | melting point: 178.1 to 179.4 °C

O=c1oc(COc2ccccc2)nc2cccc(Cl)c12 [3b, 5-Chloro-2-(phenoxymethyl)-4H-3,1-benzoxazin-4-one]
inhibition at 1 µg/mL [1, 2]: 47.2% | inhibition at 1 µg/mL [1, 3]: 0.5% | inhibition at 10 µg/mL [1, 4]: 56.3% | inhibition at 10 µg/mL [1, 5]: 24.1% | inhibition at 1 µg/mL (rape Brassica napus; [2]): 59.6% | inhibition at 1 µg/mL (rape Brassica napus; [3]): 39.2% | inhibition at 10 µg/mL (rape Brassica napus; [4]): 83.3% | inhibition at 10 µg/mL (rape Brassica napus; [5]): 51.9% | melting point: 118.3 to 120.9 °C

Cc1ccc2nc(COc3ccc(F)cc3)oc(=O)c2c1 [3v, 2-((4-Fluorophenoxy)methyl)-6-methyl-4H-3,1-benzoxazin-4-one]
inhibition at 1 µg/mL [1, 2]: 69.9% | inhibition at 1 µg/mL [1, 3]: 24.1% | inhibition at 10 µg/mL [1, 4]: 92.2% | inhibition at 10 µg/mL [1, 5]: 31.7% | inhibition at 1 µg/mL (rape Brassica napus; [2]): 87.7% | inhibition at 1 µg/mL (rape Brassica napus; [3]): 61% | inhibition at 10 µg/mL (rape Brassica napus; [4]): 99.3% | inhibition at 10 µg/mL (rape Brassica napus; [5]): 93.7% | melting point: 130.8 to 131.9 °C

Cn1c(COc2ccc(Cl)cc2Cl)nc2ccc(Cl)cc2c1=O [4q, 6-Chloro-2-((2,4-dichlorophenoxy)methyl)-3-methyl-3H-quinazolin-4-one]
inhibition at 1 µg/mL [1, 2]: 24.3% | inhibition at 1 µg/mL [1, 3]: 5.4% | inhibition at 10 µg/mL [1, 4]: 31.9% | inhibition at 10 µg/mL [1, 5]: -3.6% | inhibition at 1 µg/mL (rape Brassica napus; [2]): 8.1% | inhibition at 1 µg/mL (rape Brassica napus; [3]): 14.4% | inhibition at 10 µg/mL (rape Brassica napus; [4]): 19.3% | inhibition at 10 µg/mL (rape Brassica napus; [5]): 38.9% | melting point: 240.1 to 241.8 °C

O=c1oc(COc2ccccc2)nc2ccccc12 [3a, 2-(Phenoxymethyl)-4H-3,1-benzoxazin-4-one]
inhibition at 1 µg/mL [1, 2]: 19.3% | inhibition at 1 µg/mL [1, 3]: -29.6% | inhibition at 10 µg/mL [1, 4]: 64.8% | inhibition at 10 µg/mL [1, 5]: 26.9% | inhibition at 1 µg/mL (rape Brassica napus; [2]): 71.2% | inhibition at 1 µg/mL (rape Brassica napus; [3]): 27% | inhibition at 10 µg/mL (rape Brassica napus; [4]): 89.1% | inhibition at 10 µg/mL (rape Brassica napus; [5]): 79.4% | melting point: 87.9 to 92.1 °C

Cc1ccc2nc(COc3ccc(Cl)cc3)n(N)c(=O)c2c1 [4d, 3-Amino-2-((4-chlorophenoxy)methyl)-6-methyl-3H-quinazolin-4-one]
inhibition at 1 µg/mL [1, 2]: 16.3% | inhibition at 1 µg/mL [1, 3]: 11.9% | inhibition at 10 µg/mL [1, 4]: 35.6% | inhibition at 10 µg/mL [1, 5]: 7.4% | inhibition at 1 µg/mL (rape Brassica napus; [2]): 26.4% | inhibition at 1 µg/mL (rape Brassica napus; [3]): -14.7% | inhibition at 10 µg/mL (rape Brassica napus; [4]): 31.3% | inhibition at 10 µg/mL (rape Brassica napus; [5]): -3.4% | melting point: 177.3 to 178.6 °C
